Reference: ChEMBL document CHEMBL1147284, “Alkaloids from the Leaves of Prosopis juliflora” (J Nat Prod, 1989)
Calls of active or inactive are those of the source.

Key:
Type in all cases: functional, organism-based
Pseudomonas aeruginosa = assay: Antibacterial activity against Pseudomonas aeruginosa PAO1 HER 1018 after 24 hrs
Staphylococcus aureus = assay: Antibacterial activity against Staphylococcus aureus B827 after 24 hrs
Shigella sonnei = assay: Antibacterial activity against Shigella sonnei YER HER 1048 after 24 hrs
Escherichia coli [1] = assay: Antibacterial activity against Escherichia coli 11303 HER 1024 after 24 hrs
Escherichia coli [2] = assay: Antibacterial activity against Escherichia coli K125 HER 1037 after 24 hrs
Klebsiella pneumoniae = assay: Antibacterial activity against Klebsiella pneumoniae C3 HER 1111 after 24 hrs

Measured: Activity

C[C@@H]1N[C@H](CCCCCCCCCCc2cc(CCCCCCCCC[C@@H]3CC[C@H](O)[C@H](C)N3)c[n+]3c2C=CC3)CC[C@@H]1O
active: all assays above
